According to the supplement of paper PMC10307832:

Assays:
Test in all cases: relative viability (nuclei count vs DMSO), 5 days (fraction); higher = more cells survive
[1] = compound: CS(=O)(=O)c1ccc(-c2cnc(N)c(C(=O)Nc3ccccc3)n2)cc1 [VE-821] + CC(C)C[C@H](NC(=O)[C@H](Cc1ccccc1)NC(=O)c1cnccn1)B(O)O [Bortezomib] (partner 0.002 µM)
Summary of the method: (§1)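 Lung cancer cell lines in 1536-well plates were dosed by pin tool the day after seeding, either with one drug alone or with a fixed anchor-drug dose plus five library-drug doses (not always all listed) in √10 steps. After 5 days, cells were fixed and their nuclei stained in one step (final 0.05% Triton X-100, 1% formaldehyde, 1 ug/ml Hoechst), then counted on 4× images. Relative viability is the nuclei count in treated wells divided by that in vehicle wells. Values are medians of duplicate plates.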

[2] = compound: CS(=O)(=O)c1ccc(-c2cnc(N)c(C(=O)Nc3ccccc3)n2)cc1 [VE-821] + CCNC(=O)c1noc(-c2cc(C(C)C)c(O)cc2O)c1-c1ccc(CN2CCOCC2)cc1 [Luminespib] (partner 0.01 µM)
Summary of the method: as §1

[3] = compound: CS(=O)(=O)c1ccc(-c2cnc(N)c(C(=O)Nc3ccccc3)n2)cc1 [VE-821] + CS(=O)(=O)N1CCN(Cc2cc3nc(-c4cccc5[nH]ncc45)nc(N4CCOCC4)c3s2)CC1 [Pictilisib] (partner 1 µM)
Summary of the method: as §1

[4] = compound: N#CC[C@H](C1CCCC1)n1cc(-c2ncnc3[nH]ccc23)cn1 [Ruxolitinib] + CC(=O)Nc1cccc(-n2c(=O)n(C3CC3)c(=O)c3c(Nc4ccc(I)cc4F)n(C)c(=O)c(C)c32)c1 [Trametinib] (partner 0.02 µM)
Summary of the method: as §1

Cell Line | relative viability ([1]; first compound 0.08 µM) | relative viability ([1]; first compound 0.253 µM) | relative viability ([1]; first compound 2.53 µM) | relative viability ([1]; first compound 8 µM) | relative viability ([2]; first compound 0.08 µM) | relative viability ([2]; first compound 0.253 µM) | relative viability ([2]; first compound 0.8 µM) | relative viability ([2]; first compound 2.53 µM) | relative viability ([2]; first compound 8 µM) | relative viability ([3]; first compound 0.08 µM) | relative viability ([3]; first compound 0.253 µM) | relative viability ([3]; first compound 2.53 µM) | relative viability ([3]; first compound 8 µM) | relative viability ([4]; first compound 0.08 µM) | relative viability ([4]; first compound 0.253 µM) | relative viability ([4]; first compound 0.8 µM) | relative viability ([4]; first compound 2.53 µM) | relative viability ([4]; first compound 8 µM) | relative viability ([1]; first compound 0.8 µM) | relative viability ([3]; first compound 0.8 µM)
NCI-H520 | 0.603 | 0.697 | 0.57 | 0.47 | 0.218 | 0.24 | 0.191 | 0.276 | 0.227 | 0.321 | 0.357 | 0.325 | 0.276 | 0.87 | 0.663 | 0.823 | 0.609 | 0.574 | – | –
NCI-H2405 | 1.1 | 1 | 1.02 | 0.947 | 0.758 | 0.735 | 0.437 | 0.712 | 0.594 | 0.468 | 0.388 | 0.446 | 0.355 | 0.674 | 0.66 | 0.725 | 0.428 | 0.398 | 0.974 | 0.431
PC-3 [JPC-3] | 0.871 | 0.884 | 0.884 | 0.842 | 0.718 | 0.718 | 0.698 | 0.726 | 0.705 | 0.784 | 0.797 | 0.938 | 0.763 | – | 0.711 | 0.79 | 0.654 | 0.64 | 0.932 | 0.851
EBC-1 | 0.534 | 0.546 | 0.517 | 0.4 | – | – | – | – | – | 0.295 | 0.353 | 0.433 | 0.312 | – | – | – | – | – | 0.555 | 0.382
NCI-H2347 | 1.07 | 0.881 | 0.876 | 0.878 | 0.399 | 0.418 | 0.238 | 0.505 | 0.582 | 0.565 | 0.583 | 0.525 | 0.485 | 0.296 | 0.272 | 0.287 | 0.247 | 0.334 | 0.729 | 0.563
LXF-289 | 1.04 | 1.07 | 1.08 | 1.11 | 0.766 | 0.671 | 0.52 | 0.82 | 0.616 | 0.969 | 0.754 | 0.869 | 0.808 | 0.598 | 0.677 | 0.706 | 0.514 | 0.668 | 1.1 | 0.796
HCC-78 | 0.697 | 0.561 | 0.549 | 0.303 | – | – | – | – | – | 0.207 | 0.237 | 0.22 | 0.206 | 0.679 | 0.7 | 0.609 | 0.45 | 0.517 | 0.471 | 0.229
HCC-366 | 1.06 | 1.03 | 0.625 | 0.062 | – | – | – | – | – | 0.152 | 0.252 | 0.127 | 0.101 | 0.33 | 0.319 | 0.432 | 0.239 | 0.231 | 1.04 | 0.0721
NCI-H2023 | 1.08 | 0.902 | 0.549 | 0.218 | 0.734 | 0.624 | 0.458 | 0.212 | 0.125 | 0.278 | 0.223 | 0.194 | 0.135 | 0.57 | 0.524 | 0.654 | 0.4 | 0.565 | 0.763 | 0.191
NCI-H522 | – | – | – | – | 1.11 | 1.21 | 0.958 | 0.997 | 0.897 | – | – | – | – | 0.729 | 0.767 | 0.964 | 0.678 | 0.708 | – | –
Calu-6 | 0.945 | 0.907 | 0.937 | 0.429 | – | – | – | – | – | 1.1 | 0.973 | 0.778 | 0.523 | – | – | – | – | – | 0.891 | 0.918
IA-LM | 0.762 | 0.795 | 0.803 | 0.764 | – | – | – | – | – | 0.412 | 0.341 | 0.749 | 0.551 | – | – | – | – | – | 0.781 | 0.443
NCI-H1793 | – | – | – | – | 0.155 | 0.234 | 0.175 | 0.162 | 0.121 | 0.356 | 0.312 | 0.431 | 0.425 | 0.406 | 0.42 | 0.466 | 0.338 | 0.364 | – | 0.273
LK-2 | – | – | – | – | 0.18 | 0.182 | 0.149 | 0.205 | 0.181 | 0.709 | 0.59 | 0.595 | 0.606 | 0.903 | 0.841 | 1.06 | 0.625 | 0.869 | – | 0.601
NCI-H1395 | – | – | – | – | 0.7 | 0.677 | 0.704 | 0.636 | 0.525 | 0.568 | 0.67 | 0.605 | 0.599 | 1.04 | 0.95 | 1.15 | 0.981 | 0.965 | – | 0.652
NCI-H1648 | – | – | – | – | – | – | – | – | – | – | – | – | – | 0.548 | 0.517 | 0.62 | 0.416 | 0.74 | – | –
NCI-H1944 | – | – | – | – | 0.835 | 0.698 | 0.421 | 0.803 | 0.416 | 0.364 | 0.325 | 0.339 | 0.294 | 0.391 | 0.386 | 0.422 | 0.304 | 0.369 | – | 0.348
NCI-H1703 | 0.335 | 0.346 | 0.289 | 0.22 | – | – | – | – | – | 0.241 | 0.233 | 0.227 | 0.192 | – | – | – | – | – | 0.339 | 0.25
ABC-1 | 0.333 | 0.335 | 0.368 | 0.307 | 0.614 | 0.401 | 0.469 | 0.49 | 0.328 | 0.902 | 0.684 | 0.751 | 0.466 | – | – | – | – | – | 0.288 | 0.721
NCI-H1299 | 0.992 | 1 | 0.924 | 0.972 | – | – | – | – | – | 0.769 | 0.606 | 0.771 | 0.357 | – | – | – | – | – | 0.973 | 0.689
SK-MES-1 | – | – | – | – | 1.09 | 0.797 | 0.746 | 0.537 | 0.306 | 0.4 | 0.389 | 0.337 | 0.372 | 0.561 | 0.596 | 0.587 | 0.315 | 0.516 | – | 0.423
NCI-H2170 | – | – | – | – | 0.754 | 0.623 | 0.769 | 0.585 | 0.555 | 0.319 | 0.289 | 0.4 | 0.293 | 0.868 | 0.895 | 0.879 | 0.867 | 0.933 | – | 0.332
